Active and inactive are the calls of the source. The rule behind the calls is not given here.
Test system: GENE-TOX genotoxicity assays, various organisms and cells
Test: GENE-TOX mutagenicity studies
Conditions: for call: Assay Type: In vivo carcinogenicity studies
[1] = Species/Cell Type: Nonhuman, Assay Code: CCGT, Evaluation Type: Evaluation A (Pre-1980)
[2] = Species/Cell Type: Nonhuman, Assay Type: Sister-chromatid exchange (SCE) in vitro, Assay Code: SC2-, Evaluation Type: Evaluation B (Post-1980)
[3] = Species/Cell Type: Syrian hamster embryo (SA7/SHE) cells, Assay Type: Cell transformation, viral enhanced, Assay Code: CT7+, Evaluation Type: Evaluation A (Pre-1980)
[4] = Species/Cell Type: Syrian hamster embryo (SHE) cells, Assay Type: Cell transformation, clonal assay, Assay Code: CTC+, Evaluation Type: Evaluation A (Pre-1980)
[5] = Species/Cell Type: Bacillus subtilis (H17 vs M45), Assay Type: Rec-assay, spot test, DNA effects (bacterial DNA repair), Assay Code: REW+, Evaluation Type: Evaluation A (Pre-1980)
[6] = Species/Cell Type: Salmonella typhimurium (one or more of the five standard strains: TA98, TA100, TA1535, TA1537, and TA1538), Assay Type: Histidine reverse gene mutation, Ames assay, Assay Code: SAL+*, Activation: With metabolic activation, Evaluation Type: Evaluation A (Pre-1980)
[7] = Species/Cell Type: Nonhuman, Assay Code: CCG+, Evaluation Type: Evaluation A (Pre-1980)
[8] = Species/Cell Type: Salmonella typhimurium (one or more of the five standard strains: TA98, TA100, TA1535, TA1537, and TA1538), Assay Type: Histidine reverse gene mutation, Ames assay, Assay Code: SALT, Evaluation Type: Evaluation A (Pre-1980)
[9] = Species/Cell Type: Drosophila melanogaster, Assay Type: Sex-linked recessive lethal gene mutation, Assay Code: SRLT, Evaluation Type: Evaluation A (Pre-1980)
[10] = Species/Cell Type: Neurospora crassa, Assay Type: Forward gene mutation, Assay Code: NEF+, Evaluation Type: Evaluation A (Pre-1980)
[11] = Species/Cell Type: Nonhuman, Assay Type: Sister-chromatid exchange (SCE) in vitro, Assay Code: SC2+D, Dose Response: With dose response, Evaluation Type: Evaluation B (Post-1980)
[12] = Species/Cell Type: Nonhuman, Assay Type: Sister-chromatid exchange (SCE) in vivo, Assay Code: SC3+, Evaluation Type: Evaluation B (Post-1980)
[13] = Species/Cell Type: Saccharomyces cerevisiae, Assay Type: Mitotic recombination or gene conversion, Assay Code: YEH-, Evaluation Type: Evaluation A (Pre-1980)
[14] = Species/Cell Type: Salmonella typhimurium, Assay Type: Forward and reverse gene mutation, host-mediated assay, Assay Code: HMA-, Evaluation Type: Evaluation A (Pre-1980)
[15] = Species/Cell Type: Salmonella typhimurium (one or more of the five standard strains: TA98, TA100, TA1535, TA1537, and TA1538), Assay Type: Histidine reverse gene mutation, Ames assay, Assay Code: SAL+, Evaluation Type: Evaluation A (Pre-1980)
[16] = Species/Cell Type: Drosophila melanogaster, Assay Type: Sex-linked recessive lethal gene mutation, Assay Code: SRL+, Evaluation Type: Evaluation A (Pre-1980)

CC(=O)[O-].CC(=O)[O-].[Cd+2]
call [1]: no conclusion | mutagenic call [2]: inactive; negative | mutagenic call [3]: active; positive | mutagenic call [4]: active; positive

O=[Se]=O
mutagenic call [5]: active; positive | mutagenic call (Species/Cell Type: Human lymphocytes, Assay Type: Sister-chromatid exchange (SCE) in vitro, Assay Code: SCL+D, Dose Response: With dose response, Evaluation Type: Evaluation B (Post-1980)): active; positive | mutagenic call (Species/Cell Type: Human, Assay Type: Sister-chromatid exchange (SCE) in vitro, Assay Code: SC1+D, Dose Response: With dose response, Evaluation Type: Evaluation B (Post-1980)): active; positive | mutagenic call [2]: inactive; negative

NCCCN1CC1
mutagenic call (Species/Cell Type: Schizosaccharomyces pombe, Assay Type: Reverse gene mutation, Assay Code: YEZ+, Evaluation Type: Evaluation A (Pre-1980)): active; positive

N#Cc1cccc2ccccc12
mutagenic call (Species/Cell Type: Allium cepa, Assay Type: Chromosome aberrations, Assay Code: ALC+D, Dose Response: With dose response, Evaluation Type: Evaluation A (Pre-1980)): active; positive

C=CCNC(=O)Nc1nc(-c2ccccc2)cs1
mutagenic call (Species/Cell Type: Salmonella typhimurium, Assay Type: Forward and reverse gene mutation, host-mediated assay, Assay Code: HMAT, Evaluation Type: Evaluation A (Pre-1980)): no conclusion

CCCCCN(CCCC)N=O
mutagenic call [6]: active; positive

OCC1COCO1 (configuration not stated)
mutagenic call (Species/Cell Type: Mammalian polychromatic erythrocytes, Assay Type: Micronucleus test, chromosome aberrations, Assay Code: MNT-, Evaluation Type: Evaluation B (Post-1980)): inactive; negative

c1ccc2c(c1)ccc1[nH]c3ccc4ccccc4c3c12
call [7]: active; positive

Nc1c(N=Nc2ccc(S(=O)(=O)O)cc2)cc(N=Nc2ccc(S(=O)(=O)O)cc2)c(N)c1N=Nc1ccc(S(=O)(=O)O)cc1
mutagenic call [8]: no conclusion

Cc1cc2c(c3ccc4ccccc4c13)CCCC2=O
mutagenic call [6]: active; positive

Nc1ccc(N)c(Cl)c1
call (Species/Cell Type: Nonhuman, Assay Code: CCG-L, Evaluation Type: Evaluation A (Pre-1980)): inactive; negative

CCN(CC)Cc1cc(CC(=O)NN)ccc1OC
mutagenic call (Species/Cell Type: Saccharomyces cerevisiae, Assay Type: Reverse gene mutation, Assay Code: YERT, Evaluation Type: Evaluation A (Pre-1980)): no conclusion

Cc1cc(=O)[nH]c(=S)[nH]1
call [7]: active; positive

CC(C)C(O)(C(=O)OCC1=CC[N@+]2([O-])CCCC12)[C@H](C)O (some centres not stated)
mutagenic call [9]: no conclusion

Cc1cc(N=Nc2ccccc2C)ccc1N
mutagenic call (Species/Cell Type: Escherichia coli polA (W3110 vs P3478), Assay Type: Rec-assay, DNA effects (bacterial DNA repair), Assay Code: RE2+, Evaluation Type: Evaluation A (Pre-1980)): active; positive | mutagenic call (Species/Cell Type: Escherichia coli polA (W3119 vs P3478), Assay Type: Rec-assay, DNA effects (bacterial DNA repair), Assay Code: RE1T, Evaluation Type: Evaluation A (Pre-1980)): no conclusion | mutagenic call [10]: active; positive | call [7]: active; positive | mutagenic call [11]: active; positive | mutagenic call (Species/Cell Type: Nonhuman, Assay Type: Sister-chromatid exchange (SCE) in vitro, Assay Code: SC2T, Evaluation Type: Evaluation A (Pre-1980)): no conclusion | mutagenic call [12]: active; positive | mutagenic call [13]: inactive; negative | mutagenic call [6]: active; positive | mutagenic call [8]: no conclusion | mutagenic call [14]: inactive; negative | mutagenic call [4]: active; positive

NNc1nnc(NN)c2ccccc12
mutagenic call [12]: active; positive

Clc1ccc(N=Nc2ccc(Cl)c(Cl)c2)cc1Cl
mutagenic call (Species/Cell Type: Aspergillus nidulans, Assay Type: Forward gene mutation, Assay Code: ASF+, Evaluation Type: Evaluation A (Pre-1980)): active; positive | mutagenic call (Species/Cell Type: Rat primary hepatocytes, Assay Type: Unscheduled DNA synthesis (UDS) in vitro, DNA effects, Assay Code: UDP+D, Dose Response: With dose response, Evaluation Type: Evaluation A (Pre-1980)): active; positive

ONc1ccc2ccccc2c1
mutagenic call (Species/Cell Type: Chinese hamster ovary (CHO) cells, Assay Type: Forward gene mutation at the HPRT locus, Assay Code: CHO+, Evaluation Type: Evaluation B (Post-1980)): active; positive | mutagenic call (Species/Cell Type: Escherichia coli polA (W3119 vs P3478), Assay Type: Rec-assay, DNA effects (bacterial DNA repair), Assay Code: RE1+, Evaluation Type: Evaluation A (Pre-1980)): active; positive | mutagenic call [10]: active; positive | call [7]: active; positive | mutagenic call (Species/Cell Type: Saccharomyces cerevisiae, Assay Type: Mitotic recombination or gene conversion, Assay Code: YEH+, Evaluation Type: Evaluation A (Pre-1980)): active; positive | mutagenic call [15]: active; positive | mutagenic call (Species/Cell Type: Salmonella typhimurium, Assay Type: Forward and reverse gene mutation, host-mediated assay, Assay Code: HMA+, Evaluation Type: Evaluation A (Pre-1980)): active; positive

O=C(O)CC(O)(CC(=O)O)C(=O)O
mutagenic call (Species/Cell Type: Mammalian polychromatic erythrocytes, Assay Type: Micronucleus test, chromosome aberrations, Assay Code: MNT+, Evaluation Type: Evaluation B (Post-1980)): active; positive

CC1CN1P(=O)(N1CC1C)N1CC1C (configuration not stated)
mutagenic call [16]: active; positive | mutagenic call (Species/Cell Type: F1 mouse, Sex: Male, Assay Type: Sperm morphology, Assay Code: SPFT, Evaluation Type: Evaluation A (Pre-1980)): no conclusion | mutagenic call (Species/Cell Type: Hordeum vulgare (barley), Assay Type: Chromosome aberrations, Assay Code: HOC+, Evaluation Type: Evaluation A (Pre-1980)): active; positive | mutagenic call (Species/Cell Type: Mammalian polychromatic erythrocytes, Assay Type: Micronucleus test, chromosome aberrations, Assay Code: MNT+, Evaluation Type: Evaluation A (Pre-1980)): active; positive | mutagenic call (Species/Cell Type: Mouse, Sex: Male, Assay Type: Sperm morphology, Assay Code: SPI+, Evaluation Type: Evaluation A (Pre-1980)): active; positive | mutagenic call [10]: active; positive | mutagenic call (Species/Cell Type: Nonhuman bone marrow, Assay Type: Chromosome aberrations, in vivo, Assay Code: CY#+, Evaluation Type: Evaluation A (Pre-1980)): active; positive | call [1]: no conclusion | mutagenic call (Species/Cell Type: Rodents, Sex: Male, Assay Type: Dominant lethal test, Assay Code: DLT+, Evaluation Type: Evaluation A (Pre-1980)): active; positive | mutagenic call (Species/Cell Type: Vicia faba, Assay Type: Chromosome aberrations, Assay Code: VIC+D, Dose Response: With dose response, Evaluation Type: Evaluation A (Pre-1980)): active; positive

O=CONC(=O)c1ccc2ccccc2c1
mutagenic call [11]: active; positive

Oc1c(Cl)c(Cl)c(Cl)c(Cl)c1Cl
mutagenic call [5]: active; positive | mutagenic call [9]: no conclusion | mutagenic call (Species/Cell Type: Mouse, Sex: Female, Assay Type: Spot test, gene mutation, Assay Code: MST-, Evaluation Type: Evaluation A (Pre-1980)): inactive; negative | mutagenic call (Species/Cell Type: Saccharomyces cerevisiae, Assay Type: Forward gene mutation, Assay Code: YEF+, Evaluation Type: Evaluation A (Pre-1980)): active; positive | mutagenic call (Species/Cell Type: Saccharomyces cerevisiae, Assay Type: Mitotic recombination or gene conversion, Assay Code: YEC+, Evaluation Type: Evaluation A (Pre-1980)): active; positive | mutagenic call [13]: inactive; negative | mutagenic call (Species/Cell Type: Salmonella typhimurium (one or more of the five standard strains: TA98, TA100, TA1535, TA1537, and TA1538), Assay Type: Histidine reverse gene mutation, Ames assay, Assay Code: SAL-, Evaluation Type: Evaluation A (Pre-1980)): inactive; negative | mutagenic call [14]: inactive; negative | mutagenic call [3]: active; positive

CS(=O)(=O)OCCCOS(C)(=O)=O
mutagenic call [16]: active; positive | mutagenic call (Species/Cell Type: Rat, Sex: Male, Assay Type: Sperm morphology, Assay Code: SPA+, Evaluation Type: Evaluation A (Pre-1980)): active; positive

Cc1cc(=Nc2ccc3c(c2)c(-c2ccc(N)cc2)[n+](C)c2cc(N)ccc32)nc(N)n1C
mutagenic call [15]: active; positive

O=Nc1ccc(Nc2ccccc2)cc1
call [7]: active; positive

Reference: PubChem BioAssay AID1259408 (Genetic Toxicology Data Bank (GENE-TOX), 2018)
